Where two headings read alike, the source gives them in different places.

Format in all cases: biochemical
In assay [1] the target is T1, Chk2 (Homo sapiens, UniProt O96017). Nature of the assay: IMAP Chk2 high-throughput screening assay (fluorescence polarization).
The target in assay [2] is T2, Chk1 (Homo sapiens, UniProt O14757).
T2 sequence (O14757 1-476): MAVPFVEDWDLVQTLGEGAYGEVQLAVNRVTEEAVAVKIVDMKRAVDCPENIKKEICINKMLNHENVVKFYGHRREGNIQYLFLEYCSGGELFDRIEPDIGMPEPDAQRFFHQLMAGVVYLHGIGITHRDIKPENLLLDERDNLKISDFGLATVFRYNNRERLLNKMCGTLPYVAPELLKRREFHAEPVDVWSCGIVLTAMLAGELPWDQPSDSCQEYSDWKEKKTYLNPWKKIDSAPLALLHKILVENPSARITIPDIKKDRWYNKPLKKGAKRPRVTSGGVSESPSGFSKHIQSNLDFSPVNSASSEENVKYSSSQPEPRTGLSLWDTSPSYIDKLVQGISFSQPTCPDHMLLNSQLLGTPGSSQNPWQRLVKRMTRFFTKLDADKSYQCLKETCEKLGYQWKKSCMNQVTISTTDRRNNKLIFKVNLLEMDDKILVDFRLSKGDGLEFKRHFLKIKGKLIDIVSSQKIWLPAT
Nature of the assay: Chk1 inhibitory activity of screening hits. Particulars: FIG. 2.

Assay [3] addresses T1, Chk2. Nature of the assay: In vitro Chk2 kinase assay (γ32P-ATP, SDS-PAGE). Particulars: with increasing concentration; 30° C.; FIGS. 4 and 5. On the procedure:
(§1) Following on from the data obtained from high-throughput screening, another assay is employed to measure Chk2 kinase activity. This assay is based on using γ^32P-labeled ATP to mediate phosphorylation of the target substrate and autophosphorylation of Chk2. Histone H1 or Cdc25C is used as test substrate. The reactions are performed at 30° C. for appropriate times, then the samples have 2×SDS loading buffer added to quench the reaction. The samples are boiled for about 5 minutes and then subjected to SDS-PAGE.

Assay [4] concerns the target T2, Chk1. Nature of the assay: In vitro Chk1 kinase assay (γ32P-ATP, SDS-PAGE). Particulars: FIG. 6.
Description: FIG. 6 illustrates inhibition of Chk1 kinase activity by NSC 109555 using an in vitro kinase assay. Top bands indicate the level of Chk1 autophosphorylation, bottom bands indicate the level of histone H1 phosphorylation.
as §1
Staurosporine is used as a positive control to confirm Chk2 inhibition (See, FIG. 4). Following on from this, NSC 109555 is used in this assay and is depicted in FIG. 5. […].

Setting [5] is: IMAP assay, fluorescein-labeled peptide substrate, read-out: EC50 (Chk2 inhibition).

T1 sequence (O96017 whole entry): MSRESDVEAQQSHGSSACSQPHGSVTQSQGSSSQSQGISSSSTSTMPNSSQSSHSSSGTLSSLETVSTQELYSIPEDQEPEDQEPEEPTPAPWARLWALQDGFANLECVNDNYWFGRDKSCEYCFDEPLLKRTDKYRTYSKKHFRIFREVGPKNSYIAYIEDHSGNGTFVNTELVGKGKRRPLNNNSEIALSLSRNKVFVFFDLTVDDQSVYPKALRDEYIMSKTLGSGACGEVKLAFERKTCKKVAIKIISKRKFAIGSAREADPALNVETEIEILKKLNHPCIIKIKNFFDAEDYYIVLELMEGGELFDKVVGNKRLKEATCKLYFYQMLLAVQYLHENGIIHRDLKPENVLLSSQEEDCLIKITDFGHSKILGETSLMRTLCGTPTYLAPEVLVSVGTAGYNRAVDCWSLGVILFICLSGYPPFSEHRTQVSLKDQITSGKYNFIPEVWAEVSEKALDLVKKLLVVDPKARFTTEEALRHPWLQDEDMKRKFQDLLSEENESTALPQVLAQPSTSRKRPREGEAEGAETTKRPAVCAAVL

As to `C/C(=N\O)c1ccc2c(c1)C(=NO)c1cc(/C(C)=N/O)ccc1-2` [Compound 5], at Chk2 [1] (setting [5]), the EC50 was roughly 4 µM.
As for `C/C(=N\O)c1ccc2c(c1)C(=NO)c1ccccc1-2` [Compound 6], the EC50 at Chk2 [1] (setting [5]) fell in the range of 0.6 to 3.8 µM.
`O=[N+]([O-])c1ccc2c(c1)C(=NO)c1cc([N+](=O)[O-])ccc1-2` [Compound 7]: the EC50 on Chk2 [1] was 0.8 to 4 µM.
As for `CCN(CC)CCCNc1ccc2nc(C)n3c4ccc(O)cc4c(=O)c1c23` [Compound 8], the EC50 on Chk2 [1] (setting [5]) is roughly 20 µM.
On to `C/C(=N\NC(=N)N)c1ccc(NC(=O)Nc2ccc(/C(C)=N/NC(=N)N)cc2)cc1` [NSC 109555], for which the EC50 at Chk2 [1] (setting [5]) worked out at 0.051 µM. The “inhibitory effect on Chk1 activity” value at Chk1 [2] was “little or no inhibitory effect”. Moreover, at Chk2 [3], the “Chk2 kinase activity (autophosphorylation and histone H1 phosphorylation)” value is recorded as “inhibited”. Besides, the “kinase activity of Chk1” value on Chk1 [4] is “did not appear to inhibit”.
